What all share (assay): Combination study, ATPLite 72 h, dose matrix (Synergy Score, CI50)
Assay [1] deals with Farage. The settings on record: combination with Compound 1; Farage DLBCL cell line; FIG. 4-5.
In assay [2] the test system is TMD8. The settings on record: for CI50 growth inhibition / CI50 inhibition / Synergy Score growth inhibition / Synergy Score inhibition: TMD8, Example 2.
Assay [3] deals with HBL-1.
Assay [4] has as its system U-2932.
Assay [5] relates to OCI-Ly3. As to conditions: OCT-Ly3, Example 2.
[6] abbreviates: combination with CAL-101, Example 2.
[7] abbreviates: combination with Cmpd 1, Example 2.

Molecules are shown by their SMILES.

Take `COc1ccc(-c2ccc3c(N4CCOC[C@@H]4C)nc(N4CCOC[C@@H]4C)nc3n2)cc1CO` [AZD8055, (5-{2,4-bis[(3S)-3-methylmorpholin-4-yl]pyrido[2,3-d]pyrimidin-7-yl}-2-methoxyphenyl)methanol]: the “effect of the combination (isobologram)” value in assay [1] is recorded as “synergistic effect”; in assay [2] (combination with Compound 1, TMD8 DLBCL cell line, FIG. 1-3), “synergistic effect”.
As to `CC(=O)c1c(C)c2cnc(Nc3ccc(N4CCNCC4)cn3)nc2n(C2CCCC2)c1=O` [PD-0332991], the “Synergy Score growth inhibition” value is listed as “A1 (A1=0.0001 to <1)” in assay [3] (setting [6]); “A1 (A1=0.0001 to <1)” in assay [3] (setting [7]); “A1 (A1=0.0001 to <1)” in assay [4] (setting [6]); “A1 (A1=0.0001 to <1)” in assay [4] (setting [7]); “A3 (A3=>3)” in assay [5] (combination with CAL-101); “A2 (A2=1 to <3)” in assay [5] (combination with Cmpd 1). Further, the “Synergy Score growth inhibition” value in assay [2] (combination with CAL-101) and in assay [2] (combination with Cmpd 1) was “A3 (A3=>3)” in each case. The “Synergy Score inhibition” value is reported as “A1 (A1=0.0001 to <1)” in assay [3] (setting [6]); “A1 (A1=0.0001 to <1)” in assay [3] (setting [7]); “A1 (A1=0.0001 to <1)” in assay [4] (setting [6]); “A1 (A1=0.0001 to <1)” in assay [4] (setting [7]); “A2 (A2=1 to <3)” in assay [5] (combination with CAL-101); “A1 (A1=0.0001 to <1)” in assay [5] (combination with Cmpd 1). Besides, the “Synergy Score inhibition” value in assay [2] (combination with CAL-101) and in assay [2] (combination with Cmpd 1) was “A2 (A2=1 to <3)” throughout. For the same molecule, the CI50 growth inhibition entry in assay [5] (combination with CAL-101) is listed as “S (S=0.01 to <0.5)”; in assay [5] (combination with Cmpd 1), “T (T=0.5 to <0.7)”; in assay [2] (combination with CAL-101) it was “S (S=0.01 to <0.5)”; in assay [2] (combination with Cmpd 1), “S (S=0.01 to <0.5)”. Besides, the CI50 inhibition result was “S (S=0.01 to <0.5)” in assay [5] (combination with CAL-101), “U (U=0.7 to <1)” in assay [5] (combination with Cmpd 1), “S (S=0.01 to <0.5)” in assay [2] (combination with CAL-101) and “S (S=0.01 to <0.5)” in assay [2] (combination with Cmpd 1).
On to `C=CC(=O)N1CCC[C@@H](n2nc(-c3ccc(Oc4ccccc4)cc3)c3c(N)ncnc32)C1` [PCI-32765], for which the CI50 growth inhibition entry in assay [3] (setting [6]) is reported as “S (S=0.01 to <0.5)”; in assay [3] (setting [7]), “S (S=0.01 to <0.5)”; in assay [4] (setting [6]) it was “T (T=0.5 to <0.7)”; in assay [4] (setting [7]), “U (U=0.7 to <1)”; in assay [5] (combination with Cmpd 1), “S (S=0.01 to <0.5)”; in assay [2] (combination with CAL-101), “S (S=0.01 to <0.5)”. In addition, the CI50 growth inhibition result in assay [2] (combination with Cmpd 1) is on record as “U (U=0.7 to <1)”. Further, the “Synergy Score growth inhibition” value in assay [3] (setting [6]) is “A2 (A2=1 to <3)”; in assay [3] (setting [7]) it was “A2 (A2=1 to <3)”; in assay [4] (setting [6]), “A2 (A2=1 to <3)”; in assay [4] (setting [7]), “A2 (A2=1 to <3)”; in assay [5] (combination with CAL-101), “A1 (A1=0.0001 to <1)”; in assay [5] (combination with Cmpd 1), “A1 (A1=0.0001 to <1)”. Besides, the “Synergy Score growth inhibition” value in assay [2] (combination with CAL-101) and in assay [2] (combination with Cmpd 1) was “A3 (A3=>3)” each time. The “Synergy Score inhibition” value in assay [3] (setting [6]) was “A1 (A1=0.0001 to <1)”; in assay [3] (setting [7]) it was “A1 (A1=0.0001 to <1)”; in assay [4] (setting [6]), “A2 (A2=1 to <3)”; in assay [4] (setting [7]), “A2 (A2=1 to <3)”; in assay [5] (combination with CAL-101) it was “A1 (A1=0.0001 to <1)”; in assay [5] (combination with Cmpd 1), “A1 (A1=0.0001 to <1)”. Also, the “Synergy Score inhibition” value in assay [2] (combination with CAL-101) and in assay [2] (combination with Cmpd 1) was “A3 (A3=>3)” throughout. Moreover, the CI50 inhibition result in assay [4] (setting [6]) was “U (U=0.7 to <1)”; in assay [4] (setting [7]), “U (U=0.7 to <1)”; in assay [2] (combination with CAL-101), “S (S=0.01 to <0.5)”; in assay [2] (combination with Cmpd 1) it was “T (T=0.5 to <0.7)”.

For the origin of these results see patent US20240325398A1, “COMBINATION THERAPIES” (Infinity Pharmaceuticals, Inc., priority 2014, published 2024).
